# Laboratory results as given in patent US8202868B2, “4-piperazinyl-pyrimidine compounds suitable for treating disorders that respond to modulation of the dopamine D3 receptor” (Abbott GmbH & Co. KG, priority 2004, dated 2012).
# Where a name gives a salt, the structure may show the parent alone.
# Columns and labels:
# [1] = target: T1, human dopamine D2L receptors (long isoform) (Homo sapiens, UniProt P14416); assay: Dopamine D2L receptor binding, [125I] iodospiperone displacement; conditions: membranes of HEK-293 cells, 0.01 nM [125I] iodospiperone, 25° C., 60 minutes; read-out: Ki(D2)
# T1 construct: expressed in transfected cells; host or cells: HEK-293
# T1 sequence (P14416 whole entry, canonical isoform): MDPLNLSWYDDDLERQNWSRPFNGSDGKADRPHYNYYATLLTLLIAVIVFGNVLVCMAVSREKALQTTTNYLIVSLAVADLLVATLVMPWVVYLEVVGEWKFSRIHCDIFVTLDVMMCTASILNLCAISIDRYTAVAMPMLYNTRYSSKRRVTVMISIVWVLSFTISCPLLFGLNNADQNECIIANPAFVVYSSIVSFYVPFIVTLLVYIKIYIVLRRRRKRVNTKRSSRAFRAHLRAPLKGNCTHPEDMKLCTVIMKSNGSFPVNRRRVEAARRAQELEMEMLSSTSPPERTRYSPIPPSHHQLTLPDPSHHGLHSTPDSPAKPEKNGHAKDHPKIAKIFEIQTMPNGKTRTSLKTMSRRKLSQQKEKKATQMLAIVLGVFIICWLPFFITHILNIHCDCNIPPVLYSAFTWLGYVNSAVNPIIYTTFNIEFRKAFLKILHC
# Description: (§1) The substance to be tested was either dissolved in methanol/Chremophor® (BASF-AG) or in dimethyl sulfoxide and then diluted with water to the desired concentration.
# (§2) Each assay mixture was run in triplicate.
# The incubation buffer contained 50 mM tris, 120 mM NaCl, 5 mM KCl, 2 mM CaCl2, 2 mM MgCl2 and 0.1% bovine serum albumin. The buffer was adjusted to pH 7.4 with HCl.
# (§3) After having been incubated at 25° C. for 60 minutes, the assay mixtures were filtered through a Whatman GF/B glass fiber filter under vacuum using a cell collecting device. The filters were transferred to scintillation viols using a filter transfer system. After 4 ml of Ultima Gold® (Packard) have been added, the samples were shaken for one hour and the radioactivity was then counted in a Beta-Counter (Packard, Tricarb 2000 or 2200CA). The cpm values were converted into dpm using a standard quench series and the program belonging to the instrument.
# (§4) The inhibition curves were analyzed by means of iterative nonlinear regression analysis using the Statistical Analysis System (SAS) which is similar to the “LIGAND” program described by Munson and Rodbard.
# [2] = target: T2, human dopamine D3 receptors (Homo sapiens, UniProt P35462); assay: Dopamine D3 receptor binding, [125I]-iodosulpride displacement; conditions: for Ki: membranes of HEK-293 cells, 0.1 nM [125I]-iodosulpride, 25° C., 60 minutes; for Ki(D2)/Ki(D3): selectivity ratio of receptor binding constants
# T2 construct: expressed in transfected cells; host or cells: HEK-293
# T2 sequence (P35462 whole entry): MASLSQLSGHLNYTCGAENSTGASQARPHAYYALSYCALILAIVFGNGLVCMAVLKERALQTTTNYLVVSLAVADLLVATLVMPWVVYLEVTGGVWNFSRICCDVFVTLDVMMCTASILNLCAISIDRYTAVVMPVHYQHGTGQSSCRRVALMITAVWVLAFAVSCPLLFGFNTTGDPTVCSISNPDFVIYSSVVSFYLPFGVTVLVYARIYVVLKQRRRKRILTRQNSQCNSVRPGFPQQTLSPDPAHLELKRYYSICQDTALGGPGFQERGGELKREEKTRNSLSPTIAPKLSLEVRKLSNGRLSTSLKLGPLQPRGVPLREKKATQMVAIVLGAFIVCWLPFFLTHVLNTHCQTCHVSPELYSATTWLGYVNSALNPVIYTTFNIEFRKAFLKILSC
# Description: as §1, §2
# The incubation buffer contained 50 mM tris, 120 mM NaCl, 5 mM KCl, 2 mM CaCl2, 2 mM MgCl2 and 0.1% bovine serum albumin, 10 μM quinolone and 0.1% ascorbic acid (prepared fresh daily). The buffer was adjusted to pH 7.4 with HCl.
# as §3, §4
Ki [1],Ki [2],Ki(D2)/Ki(D3) [2],Structure (SMILES)
0.296 µM,0.0038 µM,78,"C[C@@H](COc1ncccn1)CN1CCN(c2cc(C3CCC3)nc(C(C)(C)C)n2)CC1.Cl [Example 28, (R)-2-tert-Butyl-4-cyclobutyl-6-{4-[2-methyl-3-(pyrimidin-2-yloxy)-propyl]-piperazin-1-yl}-pyrimidine hydrochloride]"
0.08 µM,0.00064 µM,124,"Cc1nnc(SCCCN2CCN(c3cc(C4(C)CC4)nc(C(C)(C)C)n3)CC2)n1C [Example 54, 2-tert-butyl-4-{4-[3-(4-methyl-5-methyl-4H-[1,2,4]triazol-3-ylsulfanyl)-propyl]piperazin-1-yl}-6-(1-methyl)cyclopropyl-pyrimidine]"
0.143 µM,0.002 µM,72,"C[C@@H](COc1ccnc(O)n1)CN1CCN(c2cc(C3CCC3)nc(C(C)(C)C)n2)CC1 [Example 31, (R)-4-{3-[4-(2-tert-Butyl-6-cyclobutyl-pyrimidin-4-yl)-piperazin-1-yl]-2-methyl-propoxy}-pyrimidin-2-ol]"
1.61 µM,0.00547 µM,296,"Cn1c(SCCCN2CCN(c3cc(C(C)(C)C)nc(C4CC4)n3)CC2)nnc1-c1cnccn1 [Example 57, 2-cyclopropyl-4-{4-[3-(5-pyrazin-4-methyl-4H-[1,2,4]triazol-3-ylsulfanyl)-propyl]-piperazin-1-yl}6-tert-butyl-pyrimidine hydrochloride]"
